From PMC9241695, “Selective Metal Chelation by a Thiosemicarbazone Derivative Interferes with Mitochondrial Respiration and Ribosome Biogenesis in Candida albicans” (Microbiology Spectrum, 2022)
≈ marks a conversion by molar mass, not a printed value.

Assays:
C. albicans SC5314 [1] = test: Antifungal susceptibility testing, microbroth dilution MIC; type: cell-based; conditions: Candida albicans, SC5314; C. albicans wild-type strain; RPMI1640, 35°C, 24 h; read-out: MIC (μg/mL) against fungi SC5314
Source text: (§1) Compound library. The thiosemicarbazone derivatives Triapine and COTI-2 were purchased from Med Chem Express (MCE). The other 87 thiosemicarbazones used in this study were previously synthesized by our collaborators (1, 2). Their structures are shown in Table 1 and Table S1 to help the reader clearly understand the relationship between structure and activity.
(§2) Strains and culture conditions. Clinically derived C. albicans isolates, including G5, F5, and Gu5, were kindly provided by Professor Joachim Morschhäuser of the University of Würzburg. Other clinical C. albicans isolates were kindly donated by Professor Qingguo Qi of Shandong University and Qianfoshan Hospital of Shandong Province Other Candida strains were obtained from Jinan Central Hospital.
(§3) The zap1 mutant and its complemented strain were kindly provided by Professor Aaron P. Mitchell of Carnegie Mellon University (3). The C. neoformans strains used in this study was kindly donated by Professor Guojian Liao of Southwest University and A. fumigatus strain used in this study was provided by Professor Ling Lu of Nanjing Normal University. Before in vitro and in vivo experiments, all C. albicans strains were grown on YPD agar plates. After culturing at 30°C for 24 h, colonies of each strain were cultured in liquid YPD medium at 30°C with continuous shaking […]
(§4) Antifungal susceptibility testing. To determine in vitro antifungal activities, the microbroth dilution method was carried out in RPMI1640 medium according to the guidelines of the Clinical and Laboratory Standards Institute (4, 5). The initial concentration in RPMI1640 medium was 1 × 10^3 CFU/mL for the C. albicans and C. neoformans suspensions but 1 × 10^4 CFU/mL for A. fumigatus. The range of final drug concentrations was 0.0156–64 μg/mL. The plates were incubated at35°C for 24 […]
(§5) h (for C. albicans, C. krusei, C. tropicalis, C. parapsilosis) or 48 h (for C. neoformans, A. fumigatus). The MIC was determined based on visible growth inhibition compared with the control. All experiments were performed in duplicate. […]

A. fumigatus AF293 = test: as above; type: cell-based; conditions: Aspergillus fumigatus, AF293; standard strain of A. fumigatus; 48 h; read-out: MIC (μg/mL) against fungi AF293
Source text: as §1, §2
(§6) The zap1 mutant and its complemented strain were kindly provided by Professor Aaron P. Mitchell of Carnegie Mellon University (3). The C. neoformans strains used in this study was kindly donated by Professor Guojian Liao of Southwest University and A. fumigatus strain used in this study was provided by Professor Ling Lu of Nanjing Normal University. […]
as §4, §5

C. neoformans H99 = test: as above; type: cell-based; conditions: Cryptococcus neoformans, H99; C. neoformans wild-type strain; 48 h; read-out: MIC (μg/mL) against fungi H99
Source text: as §1, §2, §6, §4, §5

C. albicans G5 = test: microbe, parasite or virus in culture; type: cell-based; conditions: Candida albicans; C. albicans G5; read-out: MIC80
Source text: as §1, §2, §3, §4, §5

C. albicans Gu5 = test: microbe, parasite or virus in culture; type: cell-based; conditions: Candida albicans; C. albicans Gu5; read-out: MIC80
Source text: as §1, §2, §3, §4, §5

A. fumigatus 1161 = test: Microbroth dilution MIC80; type: cell-based; conditions: Aspergillus fumigatus; A. fumigatus 1161; read-out: MIC80
Source text: as §1, §2, §3, §4, §5

C. albicans 11e = test: Microbroth dilution MIC80; type: cell-based; conditions: Candida albicans; C. albicans 11e; read-out: MIC80
Source text: as §1, §2, §3, §4, §5

C. albicans 11f = test: Microbroth dilution MIC80; type: cell-based; conditions: Candida albicans; C. albicans 11f; read-out: MIC80
Source text: as §1, §2, §3, §4, §5

C. albicans 24g = test: Microbroth dilution MIC80; type: cell-based; conditions: Candida albicans; C. albicans 24g; read-out: MIC80
Source text: as §1, §2, §3, §4, §5

C. albicans 28A = test: Microbroth dilution MIC80; type: cell-based; conditions: Candida albicans; C. albicans 28A; read-out: MIC80
Source text: as §1, §2, §3, §4, §5

C. albicans 28D = test: Microbroth dilution MIC80; type: cell-based; conditions: Candida albicans; C. albicans 28D; read-out: MIC80
Source text: as §1, §2, §3, §4, §5

C. albicans 28I = test: Microbroth dilution MIC80; type: cell-based; conditions: Candida albicans; C. albicans 28I; read-out: MIC80
Source text: as §1, §2, §3, §4, §5

C. albicans CA1 = test: Microbroth dilution MIC80; type: cell-based; conditions: Candida albicans; C. albicans CA1; read-out: MIC80
Source text: as §1, §2, §3, §4, §5

C. albicans CA3 = test: Microbroth dilution MIC80; type: cell-based; conditions: Candida albicans; C. albicans CA3; read-out: MIC80
Source text: as §1, §2, §3, §4, §5

C. albicans CA4 = test: Microbroth dilution MIC80; type: cell-based; conditions: Candida albicans; C. albicans CA4; read-out: MIC80
Source text: as §1, §2, §3, §4, §5

C. albicans DSY654 = test: Microbroth dilution MIC80; type: cell-based; conditions: Candida albicans
Source text: as §1, §2, §3, §4, §5

C. albicans F5 = test: Microbroth dilution MIC80; type: cell-based; conditions: Candida albicans; C. albicans F5; read-out: MIC80
Source text: as §1, §2, §3, §4, §5

C. albicans YEM13 = test: Microbroth dilution MIC80; type: cell-based; conditions: Candida albicans
Source text: as §1, §2, §3, §4, §5

C. albicans YEM15 = test: Microbroth dilution MIC80; type: cell-based; conditions: Candida albicans; C. albicans YEM15; read-out: MIC80
Source text: as §1, §2, §3, §4, §5

C. neoformans 108 = test: Microbroth dilution MIC80; type: cell-based; conditions: Cryptococcus neoformans; C. neoformans 108; read-out: MIC80
Source text: as §1, §2, §3, §4, §5

C. tropicalis CT2 = test: Microbroth dilution MIC80; type: cell-based; conditions: Candida tropicalis; C. tropicalis CT2; read-out: MIC80
Source text: as §1, §2, §3, §4, §5

C. krusei CK1 = test: Microbroth dilution MIC80; type: cell-based, Candida krusei; conditions: Pichia kudriavzevii; C. krusei CK1; read-out: MIC80
Source text: as §1, §2, §3, §4, §5

C. parapsilosis CP001 = test: Microbroth dilution MIC80; type: cell-based, Candida parapsilosis; conditions: Lodderomyces parapsilosis; C. parapsilosis CP001; read-out: MIC80
Source text: as §1, §2, §3, §4, §5

C. albicans SC5314 [2] = test: Drug resistance study by serial passage; type: cell-based, Candida albicans; conditions: RPMI 1640 medium, 40-day period, passages at 0.5 × MIC
C. albicans SC5314 [3] = test: G. mellonella infection model; type: in vivo, Galleria mellonella; conditions: 19ak 0.4 μg per larva, FLC 2 μg per larva
Description: The G. mellonella infection model was used to evaluate the in vivo activity of 19ak in terms of survival, fungal burden, and histological features. A total of 60 larvae of similar size were selected and randomly allocated to four groups. The last right foreleg of each larva was injected with 10 μL of C. albicans SC5314 suspension (2 × 10^7 CFU/mL). Two hours after infection, the larvae were injected with 10 μL of drug or vehicle as follows for the four groups: 19ak (0.4 μg per larva), FLC (2 μg per larva), control (PBS), and blank control (no injection with C. albicans but injections of sterile PBS twice). The data for the blank control are not shown because this group survived well during the experiment. Failure to respond to light contact with forceps was considered a sign of larval death. In the survival assay, the number of surviving larvae in each group was calculated at the same time every day for 4 days.
To determine fungal burden, larval infection and treatment were performed as described above with groups of 30 larvae each. Each day, five larvae were randomly selected from each group and homogenized with glass beads in 0.5 mL of sterile PBS. The homogenate was serially diluted with sterile PBS, and 5 μL was spread on a yeast-peptone-dextrose solid plate ([62]). Experiments were performed at least three times independently.
We also conducted histopathological studies to explore the therapeutic effects of the drugs on G. mellonella fungal infection. First, the groups of larvae were infected as described above. After 48 h, three larvae from each group were randomly selected and fixed in 4% paraformaldehyde for sectioning and Periodic acid-Schiff (PAS) staining. The tissue was observed and photographed under an Olympus microscope with 40 × magnification (IX71, Olympus, Tokyo, Japan). The experiments were performed independently a minimum of three times.

Work on `OC(Cn1cncn1)(Cn1cncn1)c1ccc(F)cc1F` [FLC, fluconazole, reference compound] yielded an MIC (C. albicans SC5314 [1]) of 2 µg/mL (≈ 6.53 µM), an MIC (A. fumigatus AF293) greater than 64 µg/mL and an MIC (C. neoformans H99) of 2 µg/mL (≈ 6.53 µM). For the same compound, the MIC80 (C. albicans G5) was greater than 128 µg/mL, the MIC80 (C. albicans Gu5) was greater than 128 µg/mL and the MIC80 (A. fumigatus 1161) was greater than 64 µg/mL. The MIC80 (C. albicans 11e) was 1 µg/mL (≈ 3.27 µM), the MIC80 (C. albicans 11f) was 1 µg/mL (≈ 3.27 µM) and the MIC80 (C. albicans 24g) was 1 µg/mL (≈ 3.27 µM). For the same compound, the MIC80 (C. albicans 28A) was greater than 128 µg/mL, the MIC80 (C. albicans 28D) was greater than 128 µg/mL and the MIC80 (C. albicans 28I) was greater than 128 µg/mL. The MIC80 (C. albicans CA1) was 2 µg/mL (≈ 6.53 µM), the MIC80 (C. albicans CA3) was 2 µg/mL (≈ 6.53 µM) and the MIC80 (C. albicans CA4) was 8 µg/mL (≈ 26.1 µM). The MIC80 (C. albicans DSY654) was 0.25 µg/mL (≈ 0.816 µM), the MIC80 (C. albicans F5) was greater than 128 µg/mL and the MIC80 (C. albicans YEM13) was 64 µg/mL (≈ 209 µM). It also gave an MIC80 (C. albicans YEM15) of 64 µg/mL (≈ 209 µM), an MIC80 (C. neoformans 108) of 2 µg/mL (≈ 6.53 µM) and an MIC80 (C. tropicalis CT2) of 2 µg/mL (≈ 6.53 µM). The MIC80 (C. krusei CK1) was 2 µg/mL (≈ 6.53 µM), the MIC80 (C. parapsilosis CP001) was 1 µg/mL (≈ 3.27 µM) and the “Change of MIC after repeated exposure” value (C. albicans SC5314 [2]) was “significant increase in the MIC value”. The “Histopathology of infected larvae” value (C. albicans SC5314 [3]; 48 h, PAS staining) was “fewer infected areas” and the “Fungal burden of infected larvae” value (C. albicans SC5314 [3]; compared with the control group) was “greatly reduced the fungal burden”.
